Source: US10448639B2, “Fungicidal pyrazoles” (FMC CORPORATION, priority 2009, dated 2019)

Columns and labels:
[1] = tested on: Erysiphe graminis f sp. tritici; assay: Test J: wheat powdery mildew, preventive spray on wheat seedlings, visual disease rating; conditions: for Test J disease control rating / Test J rating (% disease control): wheat powdery mildew, 100 = 100% disease control; for Test J disease control rating: sprayed the day before inoculation, 0 = no disease control relative to controls
Septoria nodorum = assay: Test F: Septoria glume blotch, preventive spray on wheat seedlings, visual disease rating; conditions: for Test F disease control rating / Test F rating (% disease control): 100 = 100% disease control; for Test F disease control rating: 0 = no disease control relative to controls
Excerpt: (§1) General protocol for preparing test suspensions for Tests A-J: the test compounds were first dissolved in acetone in an amount equal to 3% of the final volume and then suspended at the desired concentration (in ppm) in acetone and purified water (50/50 mix by volume) containing 250 ppm of the surfactant Trem® 014 (polyhydric alcohol esters). The resulting test suspensions were then used in Tests A-J. Spraying a 200 ppm test suspension to the point of run-off on the test plants was the equivalent of a rate of 500 g/ha. Unless otherwise indicated, the rating values indicate a 200 ppm test suspension was used. (An asterisk “*” next to the rating value indicates a 40 ppm test suspension was used.)
The test suspension was sprayed to the point of run-off on wheat seedlings. The following day the seedlings were inoculated with a spore suspension of Septoria nodorum (the causal agent of Septoria glume blotch) and incubated in a saturated atmosphere at 24° C. for 48 h, and then moved to a growth chamber at 20° C. for 6 days, after which time visual disease ratings were made.

Septoria tritici = assay: Test G: wheat leaf blotch, preventive spray on wheat seedlings, visual disease rating; conditions: for Test G disease control rating / Test G rating (% disease control): wheat leaf blotch, 100 = 100% disease control; for Test G disease control rating: sprayed the day before inoculation, 0 = no disease control relative to controls
[2] = tested on: Puccinia recondita f. sp. tritici; assay: Test H: wheat leaf rust, curative spray on inoculated wheat seedlings, visual disease rating; conditions: for Test H disease control rating / Test H rating (% disease control): wheat leaf rust, 100 = 100% disease control; for Test H disease control rating: sprayed after inoculation, 0 = no disease control relative to controls
Botrytis cinerea = assay: Test B: tomato Botrytis, preventive spray on tomato seedlings, visual disease rating; conditions: for Test B disease control rating / Test B rating (% disease control): tomato Botrytis, 100 = 100% disease control; for Test B disease control rating: 0 = no disease control relative to controls
[3] = tested on: Puccinia recondita f. sp. tritici; assay: Test I: wheat leaf rust, preventive spray on wheat seedlings, visual disease rating; conditions: for Test I disease control rating / Test I rating (% disease control): wheat leaf rust, 100 = 100% disease control; for Test I disease control rating: sprayed the day before inoculation, 0 = no disease control relative to controls
Alternaria solani = assay: Test C: tomato early blight, preventive spray on tomato seedlings, visual disease rating; conditions: for Test C disease control rating / Test C rating (% disease control): tomato early blight, 100 = 100% disease control; for Test C disease control rating: 0 = no disease control relative to controls
Excerpt: as §1
The test suspension was sprayed to the point of run-off on tomato seedlings. The following day the seedlings were inoculated with a spore suspension of Alternaria solani (the causal agent of tomato early blight) and incubated in a saturated atmosphere at 27° C. for 48 h, and then moved to a growth chamber at 20° C. for 5 days, after which time visual disease ratings were made.

[4] = 0 = no control relative to controls
[5] = Septoria glume blotch, 0 = no control relative to controls
[6] = curative, 0 = no control relative to controls
[7] = preventive, 0 = no control relative to controls
[8] = preventive spray, 0 = no control
[9] = Septoria glume blotch on wheat, preventive spray, 0 = no control

Row | SMILES | Test J rating (% disease control) [1, 4] [%] | Test F rating (% disease control) (Septoria nodorum; [5]) [%] | Test G rating (% disease control) (Septoria tritici; [4]) [%] | Test H rating (% disease control) [2, 6] [%] | Test B rating (% disease control) (Botrytis cinerea; [4]) [%] | Test I rating (% disease control) [3, 7] [%] | Test C rating (% disease control) (Alternaria solani; [4]) [%] | Test J rating (% disease control) [1, 8] [%] | Test F rating (% disease control) (Septoria nodorum; [9]) [%] | Test G rating (% disease control) (Septoria tritici; [8]) [%] | Test H rating (% disease control) ([2]; curative spray, 0 = no control) [%] | Test B rating (% disease control) (Botrytis cinerea; [8]) [%] | Test I rating (% disease control) [3, 8] [%] | Test C rating (% disease control) (Alternaria solani; [8]) [%] | further results
1 | Cc1nn(C)c(Nc2ccc(F)cc2Br)c1-c1c(Cl)cccc1Cl [compound 340] | – | – | – | – | – | – | – | – | – | – | – | – | – | – | Test J disease control rating [1]: 100%; Test F disease control rating (Septoria nodorum; Septoria glume blotch on wheat): 0%; Test G disease control rating (Septoria tritici): 100%; Test H disease control rating [2]: 0%; Test B disease control rating (Botrytis cinerea): 99%; Test I disease control rating [3]: 91%; Test C disease control rating (Alternaria solani): 0%
2 | Cc1nn(C)c(Nc2ccc(Cl)cc2Cl)c1-c1c(F)cccc1F [compound 179] | 100 | 73 | 95 | 0 | 100 | 93 | 99 | – | – | – | – | – | – | – | –
3 | Cc1nn(C)c(Oc2c(F)cc(C#N)cc2F)c1-c1cc(C(F)(F)F)ccc1Cl [compound 307] | – | – | – | – | – | – | – | – | – | – | – | – | – | – | Test J disease control rating [1]: 0%; Test F disease control rating (Septoria nodorum; Septoria glume blotch on wheat): 0%; Test G disease control rating (Septoria tritici): 0%; Test H disease control rating [2]: 0%; Test B disease control rating (Botrytis cinerea): 0%; Test I disease control rating [3]: 0%; Test C disease control rating (Alternaria solani): 0%
4 | Cc1nn(C)c(Oc2c(F)cc(C#N)cc2F)c1-c1cc(F)ccc1Cl [compound 276] | 100 | 98 | 100 | 31 | 100 | 100 | 99 | – | – | – | – | – | – | – | –
5 | Cc1nn(C)c(Oc2c(F)cc(C#N)cc2F)c1-c1ccc(F)cc1F [compound 170] | 99 | 99 | 98 | 0 | 100 | 100 | 99 | – | – | – | – | – | – | – | –
6 | COc1cc(F)c(Nc2c(-c3c(F)cccc3F)c(C)nn2C)c(F)c1 [compound 257] | 98 | 0 | 100 | 0 | 100 | 97 | 99 | – | – | – | – | – | – | – | –
7 | Cc1nn(C)c(Oc2c(F)cc(C#N)cc2F)c1-c1ccc(Cl)cc1 [compound 44] | – | – | – | – | – | – | – | 0 | 0 | 96 | 7 | 82 | 9 | 0 | –
8 | Cc1nn(C)c(Nc2c(F)cc(F)cc2F)c1-c1ccc(Cl)cc1 [compound 28] | – | – | – | – | – | – | – | 0 | 0 | 96 | 7 | 99 | 91 | 0 | –
9 | Cc1nn(C)c(Oc2ncc(F)cc2F)c1-c1ccc(F)cc1Cl [compound 189] | 98 | 80 | 100 | 99 | 99 | 99 | 100 | – | – | – | – | – | – | – | –
10 | Cc1nn(C)c(Oc2c(F)cc([N+](=O)[O-])cc2F)c1-c1ccc(F)cc1Cl [compound 121] | – | – | – | – | – | – | – | 97 | 82 | 99 | 83 | 100 | 100 | 86 | –
11 | COc1cc(F)c(-c2c(C)nn(C)c2Oc2ccc(Br)c(C)c2)c(F)c1 [compound 186] | 93 | 0 | 99 | 0 | 0 | 54 | 0 | – | – | – | – | – | – | – | –
12 | Cc1nn(C)c(Oc2c(F)cc(C#N)cc2F)c1-c1ccc(F)cc1Br [Compound 232, 4-[[4-(2-bromo-4-fluorophenyl)-1,3-dimethyl-1H-pyrazol-5-yl]oxy]-3,5-difluorobenzonitrile] | – | – | – | – | – | – | – | – | – | – | – | – | – | – | pest or weed control at 200 µg/mL ([1]; Blumeria graminis, in Triticum aestivum, 192 h, read-out: Test J rating (% disease control)): 100%; pest or weed control at 200 µg/mL (Septoria nodorum; Parastagonospora nodorum, in Triticum aestivum, 192 h, read-out: Test F rating (% disease control)): 99%; pest or weed control at 200 µg/mL (Septoria tritici; Zymoseptoria tritici, in Triticum aestivum, 504 h, read-out: Test G rating (% disease control)): 100%; pest or weed control at 200 µg/mL ([2]; 144 h, read-out: Test H rating (% disease control)): 0%; pest or weed control at 200 µg/mL (Botrytis cinerea; Botrytis cinerea, in Solanum lycopersicum, 120 h, read-out: Test B rating (% disease control)): 100%; pest or weed control at 200 µg/mL ([3]; 192 h, read-out: Test I rating (% disease control)): 100%; pest or weed control at 200 µg/mL (Alternaria solani; Alternaria solani, in Solanum lycopersicum, 168 h, read-out: Test C rating (% disease control)): 99%
13 | Cc1nn(C)c(Nc2ncc(Cl)cc2Cl)c1-c1ccccc1Cl [compound 320] | – | – | – | – | – | – | – | – | – | – | – | – | – | – | Test J disease control rating [1]: 98%; Test F disease control rating (Septoria nodorum; Septoria glume blotch on wheat): 0%; Test G disease control rating (Septoria tritici): 100%; Test H disease control rating [2]: 0%; Test B disease control rating (Botrytis cinerea): 99%; Test I disease control rating [3]: 99%; Test C disease control rating (Alternaria solani): 67%
14 | CCOc1ccc(Nc2c(-c3ccc(F)cc3Cl)c(C)nn2C)c(Cl)c1 [compound 325] | – | – | – | – | – | – | – | – | – | – | – | – | – | – | Test J disease control rating [1]: 99%; Test F disease control rating (Septoria nodorum; Septoria glume blotch on wheat): 0%; Test G disease control rating (Septoria tritici): 100%; Test H disease control rating [2]: 0%; Test B disease control rating (Botrytis cinerea): 100%; Test I disease control rating [3]: 97%; Test C disease control rating (Alternaria solani): 0%
15 | COc1cc(OC)c(Nc2c(-c3c(F)cc(F)cc3F)c(C)nn2C)cc1Cl [compound 100] | – | – | – | – | – | – | – | 0 | 0 | 48 | 0 | 38 | 41 | 0 | –
16 | CCn1nc(C)c(-c2ccc(Cl)cc2)c1Nc1c(F)cccc1F [compound 61] | – | – | – | – | – | – | – | 73 | 0 | 99 | 0 | 97 | 38 | 0 | –
17 | Cc1nn(C)c(Nc2c(F)cc(F)cc2F)c1-c1ccc(F)c(F)c1 [compound 35] | – | – | – | – | – | – | – | 100 | 0 | 95 | 0 | 100 | 97 | 0 | –
18 | Cc1nn(C)c(Oc2ccc(C#N)c(C#N)c2)c1-c1ccc(F)cc1Cl [compound 168] | 0 | 0 | 33 | 0 | 14 | 0 | 0 | – | – | – | – | – | – | – | –
19 | Cc1nn(C)c(Nc2ccc(F)cc2)c1-c1c(F)cc(C#N)cc1F [compound 111] | – | – | – | – | – | – | – | 99 | 90 | 99 | 0 | 99 | 97 | 75 | –
20 | C=CCN(c1c(F)cc(OC)cc1F)c1c(-c2ccc(F)cc2Cl)c(C)nn1C [compound 159] | 100 | 0 | 100 | 74 | 99 | 99 | 0 | – | – | – | – | – | – | – | –
